Source: patent publication US20230089368A1, “POLYAROMATIC UREA DERIVATIVES AND THEIR USE IN THE TREATMENT OF MUSCLE DISEASES” (ANAGENESIS BIOTECHNOLOGIES S.A.S., priority 2019, published 2023)
pEC50: −log10 of the molar value.

Legend:
[1] = tested on: satellite-like cells (Pax7-positive cells) in hMP; experiment: Myotube assay: Pax7-positive (satellite-like) cell quantification; format: cell-based, human; set-up: key to Pax7% (pool of Pax7-positive cells) / Pax7: −: Depletes the pool of cells, while positively affects the myotubes; +: Maintains or increases the pool of cells, with at least 1 of the highest concentration known to be cytotoxic; ++: Maintains or increases the pool of cells, without any toxicity; conditions: myotube assay, compounds incubated 3 days
Method in brief: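 DMD hiPSC-derived muscle progenitors (hMP) proliferated 4 days, then plated on collagen I in K5 medium with 5 μM Y-27632. Compound added at 1.5 nM–30 μM for 3 days at 37° C, then cells fixed and immunostained. Pax7-positive cells counted as percentage of total nuclei, duplicates averaged.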

[2] = tested on: muscle progenitors (hMP) from DMD hiPSC or WT hiPSC; experiment: Myotube assay: myogenic activity (total myotube area per well); format: cell-based, human; conditions: Homo sapiens, 72 h, myotube assay, compounds incubated 3 days; for Emax: read-out: MA (normalized Myotube Area, efficacy)
Method in brief: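 DMD or WT hiPSC-derived muscle progenitors plated on collagen I in K5 medium with 5 μM Y-27632, treated with compound (1.5 nM–30 μM) for 3 days at 37° C. Cells were fixed, stained for alpha-actinin and imaged for total myotube area per well. EC50 and normalized myotube area (MA) taken from duplicate-averaged data.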

For `CC1(c2cc(NC(=O)Nc3ccc(Oc4ccnc5[nH]c(=O)cnc45)cc3F)n(-c3ccccc3)n2)COC1` [(f), 1-(2-fluoro-4-((3-oxo-3,4-dihydropyrido[2,3-b]pyrazin-8-yl)oxy)phenyl)-3-(3-(3-methyloxetan-3-yl)-1-phenyl-1H-pyrazol-5-yl)urea], the “Pax7% (pool of Pax7-positive cells)” value [1] was “++” and the Emax [2] was 50 to 75%.

For `CSc1cc(Oc2ccnc3[nH]c(=O)cnc23)ccc1NC(=O)Nc1cc(C(C)(C)C)nn1-c1ccc(C#N)cc1` [(cc), 1-(3-(tert-butyl)-1-(4-cyanophenyl)-1H-pyrazol-5-yl)-3-(2-(methylthio)-4-((3-oxo-3,4-dihydropyrido[2,3-b]pyrazin-8-yl)oxy)phenyl)urea], the “Pax7% (pool of Pax7-positive cells)” value [1] was “+” and the Emax [2] was at least 75%.

`CCC(C)c1cc(NC(=O)Nc2ccc(Oc3ccnc4[nH]c(=O)cnc34)cc2F)n(-c2ccccc2)n1` (centres unmarked) [(c), 1-(3-(sec-butyl)-1-phenyl-1H-pyrazol-5-yl)-3-(2-fluoro-4-((3-oxo-3,4-dihydropyrido[2,3-b]pyrazin-8-yl)oxy)phenyl)urea] was tested, and the “Pax7% (pool of Pax7-positive cells)” value [1] was “+” and the Emax [2] was 50 to 75%.

For `CSc1cc(Oc2ccnc3[nH]c(=O)cnc23)ccc1NC(=O)Nc1cc(C(C)(C)C)nn1-c1ccccc1Cl` [(at), 1-(3-(tert-butyl)-1-(2-chlorophenyl)-1H-pyrazol-5-yl)-3-(2-(methylthio)-4-((3-oxo-3,4-dihydropyrido[2,3-b]pyrazin-8-yl)oxy)phenyl)urea], the “Pax7% (pool of Pax7-positive cells)” value [1] was “++” and the Emax [2] was at least 75%.

For `CSc1cc(Oc2ccnc3[nH]c(=O)cnc23)ccc1NC(=O)Nc1nnc(C(C)(C)C)s1` [(z), 1-(5-(tert-butyl)-1,3,4-thiadiazol-2-yl)-3-(2-(methylthio)-4-((3-oxo-3,4-dihydropyrido[2,3-b]pyrazin-8-yl)oxy)phenyl)urea], the “Pax7% (pool of Pax7-positive cells)” value [1] was “++” and the Emax [2] was at least 75%.

In the case of `CC(C)(C)c1cc(NC(=O)Nc2ccc(Oc3ccnc4[nH]c(=O)cnc34)c(OC(F)(F)F)c2)n(-c2ccccc2)n1` [(cp), 1-(3-(tert-butyl)-1-phenyl-1H-pyrazol-5-yl)-3-(4-((3-oxo-3,4-dihydropyrido[2,3-b]pyrazin-8-yl)oxy)-3-(trifluoromethoxy)phenyl)urea], the “Pax7% (pool of Pax7-positive cells)” value [1] was “+” and the Emax [2] was 50 to 75%.

With `CNC(=O)c1ccc(Oc2cccc(NC(=O)Nc3cc(C(C)(C)C)nn3-c3ccccc3)c2)cn1` [(ab), 5-(3-(3-(3-(tert-butyl)-1-phenyl-1H-pyrazol-5-yl)ureido)phenoxy)-N-methylpicolinamide] the “Pax7% (pool of Pax7-positive cells)” value [1] was “++” and the Emax [2] was 50 to 75%.

`CCOC(=O)Nc1cc(Oc2ccc(NC(=O)Nc3cc(C(C)(C)C)nn3-c3ccccc3)c3ccccc23)ccn1` [(da), Ethyl (4-((4-(3-(3-(tert-butyl)-1-phenyl-1H-pyrazol-5-yl)ureido)naphthalen-1-yl)oxy)pyridin-2-yl)carbamate] was tested, and the “Pax7% (pool of Pax7-positive cells)” value [1] was “+” and the Emax [2] was at least 75%.

For `CSc1cc(Oc2ccnc3[nH]c(=O)cnc23)ccc1NC(=O)Nc1nnc(C(C)(C)C)o1` [(cj), 1-(5-(tert-butyl)-1,3,4-oxadiazol-2-yl)-3-(2-(methylthio)-4-((3-oxo-3,4-dihydropyrido[2,3-b]pyrazin-8-yl)oxy)phenyl)urea], the “Pax7% (pool of Pax7-positive cells)” value [1] was “+” and the Emax [2] was at least 75%.

In the case of `CSc1cc(Oc2ccnc3c2CCC(=O)N3)ccc1NC(=O)Nc1ncc(C(C)(C)C)s1` [(cb), 1-(5-(tert-butyl)thiazol-2-yl)-3-(2-(methylthio)-4-((7-oxo-5,6,7,8-tetrahydro-1,8-naphthyridin-4-yl)oxy)phenyl)urea], the “Pax7% (pool of Pax7-positive cells)” value [1] was “++” and the Emax [2] was at least 75%.

`CC(C)(C)c1cnc(NC(=O)Nc2ccc(Oc3ccnc4[nH]c(=O)cnc34)c3ccccc23)s1` [(ba), 1-(5-(tert-butyl)thiazol-2-yl)-3-(4-((3-oxo-3,4-dihydropyrido[2,3-b]pyrazin-8-yl)oxy)naphthalen-1-yl)urea] was tested, and the “Pax7% (pool of Pax7-positive cells)” value [1] was “++” and the Emax [2] was at least 75%.

In the case of `CSc1cc(Oc2ccnc3[nH]c(=O)cnc23)ccc1NC(=O)Nc1cc(C(C)(C)C)nn1-c1cccc(F)c1` [(bw), 1-(3-(tert-butyl)-1-(3-fluorophenyl)-1H-pyrazol-5-yl)-3-(2-(methylthio)-4-((3-oxo-3,4-dihydropyrido[2,3-b]pyrazin-8-yl)oxy)phenyl)urea], the “Pax7% (pool of Pax7-positive cells)” value [1] was “++” and the Emax [2] was at least 75%.

In the case of `CSc1cc(Oc2ccnc3c2CCC(=O)N3)ccc1NC(=O)Nc1cncc(C(F)(F)F)c1` [(cg), 1-(2-(methylthio)-4-((7-oxo-5,6,7,8-tetrahydro-1,8-naphthyridin-4-yl)oxy)phenyl)-3-(5-(trifluoromethyl)pyridin-3-yl)urea], the “Pax7% (pool of Pax7-positive cells)” value [1] was “−” and the Emax [2] was at least 75%.

`CC(C)(C)c1cc(NC(=O)Nc2cccc(Oc3ccnc4[nH]c(=O)cnc34)c2F)n(-c2ccccc2)n1` [(cw), 1-(3-(tert-butyl)-1-phenyl-1H-pyrazol-5-yl)-3-(2-fluoro-3-((3-oxo-3,4-dihydropyrido[2,3-b]pyrazin-8-yl)oxy)phenyl)urea] was tested, and the “Pax7% (pool of Pax7-positive cells)” value [1] was “++” and the Emax [2] was at least 75%.

For `CCOC(=O)Nc1cc(Oc2ccc(NC(=O)Nc3ncc(C(C)(C)C)s3)c3ccccc23)ccn1` [(dc), Ethyl (4-((4-(3-(5-(tert-butyl)thiazol-2-yl)ureido)naphthalen-1-yl)oxy)pyridin-2-yl)carbamate], the “Pax7% (pool of Pax7-positive cells)” value [1] was “+” and the Emax [2] was at least 75%.

`COc1ccccc1-n1nc(C(C)(C)C)cc1NC(=O)Nc1ccc(Oc2ccnc3[nH]c(=O)cnc23)cc1SC` [(av), 1-(3-(tert-butyl)-1-(2-methoxyphenyl)-1H-pyrazol-5-yl)-3-(2-(methylthio)-4-((3-oxo-3,4-dihydropyrido[2,3-b]pyrazin-8-yl)oxy)phenyl)urea] was tested, and the “Pax7% (pool of Pax7-positive cells)” value [1] was “++”, the pEC50 ([2]; 10 points dose-response 1.5 nM to 30 μM, read-out: EC50 (myogenic activity, half-maximal generation of myotubes)) was at most 5.30 and the Emax [2] was at least 75%.

For `CSc1cc(Oc2ccnc3[nH]c(=O)cnc23)ccc1NC(=O)Nc1cc(C(C)(C)C)nn1-c1cccc(Cl)c1` [(as), 1-(3-(tert-butyl)-1-(3-chlorophenyl)-1H-pyrazol-5-yl)-3-(2-(methylthio)-4-((3-oxo-3,4-dihydropyrido[2,3-b]pyrazin-8-yl)oxy)phenyl)urea], the “Pax7% (pool of Pax7-positive cells)” value [1] was “+” and the Emax [2] was at least 75%.

With `CCOC(=O)Nc1cc(Oc2ccc(NC(=O)Nc3cc(C(C)(C)C)no3)c3ccccc23)ccn1` [(db), Ethyl (4-((4-(3-(3-(tert-butyl)isoxazol-5-yl)ureido)naphthalen-1-yl)oxy)pyridin-2-yl)carbamate] the “Pax7% (pool of Pax7-positive cells)” value [1] was “+” and the Emax [2] was at least 75%.

With `CSc1cc(Oc2ccnc3[nH]c(=O)cnc23)ccc1NC(=O)Nc1cc(C(C)(C)C)nn1-c1ccc(C)nc1` [(bd), 1-(3-(tert-butyl)-1-(6-methylpyridin-3-yl)-1H-pyrazol-5-yl)-3-(2-(methylthio)-4-((3-oxo-3,4-dihydropyrido[2,3-b]pyrazin-8-yl)oxy)phenyl)urea] the “Pax7% (pool of Pax7-positive cells)” value [1] was “+” and the Emax [2] was at least 75%.

In the case of `CSc1cc(Oc2ccnc3c2OCCN3)ccc1NC(=O)Nc1cc(C(C)(C)C)nn1-c1ccccc1` [(cy), 1-(3-(tert-butyl)-1-phenyl-1H-pyrazol-5-yl)-3-(4-((3,4-dihydro-2H-pyrido[3,2-b][1,4]oxazin-8-yl)oxy)-2-(methylthio)phenyl)urea], the “Pax7% (pool of Pax7-positive cells)” value [1] was “+” and the Emax [2] was at least 75%.

`CSc1cc(Oc2ccnc(NC(=O)CN(C)C(=O)OC(C)(C)C)c2)ccc1NC(=O)Nc1cc(C(C)(C)C)nn1-c1ccccc1` [(bp), tert-butyl (2-((4-(4-(3-(3-(tert-butyl)-1-phenyl-1H-pyrazol-5-yl)ureido)-3-(methylthio)phenoxy)pyridin-2-yl)amino)-2-oxoethyl)(methyl)carbamate] was tested, and the “Pax7% (pool of Pax7-positive cells)” value [1] was “+” and the Emax [2] was at least 75%.

For `CC(C)(C)c1cc(NC(=O)Nc2ccc(Oc3ccnc4[nH]c(=O)cnc34)cc2F)n(-c2cccnc2)n1` [(l), 1-(3-(tert-butyl)-1-(pyridin-3-yl)-1H-pyrazol-5-yl)-3-(2-fluoro-4-((3-oxo-3,4-dihydropyrido[2,3-b]pyrazin-8-yl)oxy)phenyl)urea], the “Pax7% (pool of Pax7-positive cells)” value [1] was “+” and the Emax [2] was 50 to 75%.

With `CC(C)(C)c1cc(NC(=O)Nc2cc(Oc3ccnc4[nH]c(=O)cnc34)ccc2F)n(-c2ccccc2)n1` [(cq), 1-(3-(tert-butyl)-1-phenyl-1H-pyrazol-5-yl)-3-(2-fluoro-5-((3-oxo-3,4-dihydropyrido[2,3-b]pyrazin-8-yl)oxy)phenyl)urea] the “Pax7% (pool of Pax7-positive cells)” value [1] was “++” and the Emax [2] was at least 75%.

With `CC(C)(C)c1nc(NC(=O)Nc2ccc(Oc3ccnc4[nH]c(=O)cnc34)cc2F)n(-c2ccccc2)n1` [(p), 1-(3-(tert-butyl)-1-phenyl-1H-1,2,4-triazol-5-yl)-3-(2-fluoro-4-((3-oxo-3,4-dihydropyrido[2,3-b]pyrazin-8-yl)oxy)phenyl)urea] the “Pax7% (pool of Pax7-positive cells)” value [1] was “++” and the Emax [2] was 25 to 50%.

With `CC(C)c1cc(NC(=O)Nc2ccc(Oc3ccnc4[nH]c(=O)cnc34)cc2F)n(-c2ccccc2)n1` [(b), 1-(2-fluoro-4-((3-oxo-3,4-dihydropyrido[2,3-b]pyrazin-8-yl)oxy)phenyl)-3-(3-isopropyl-1-phenyl-1H-pyrazol-5-yl)urea] the “Pax7% (pool of Pax7-positive cells)” value [1] was “++” and the Emax [2] was 25 to 50%.

In the case of `CC(C)(C)c1cc(NC(=O)Nc2ccc(Oc3ccnc4[nH]c(=O)cnc34)nc2)n(-c2ccccc2)n1` [(t), 1-(3-(tert-butyl)-1-phenyl-1H-pyrazol-5-yl)-3-(6-((3-oxo-3,4-dihydropyrido[2,3-b]pyrazin-8-yl)oxy)pyridin-3-yl)urea], the “Pax7% (pool of Pax7-positive cells)” value [1] was “+” and the Emax [2] was 25 to 50%.
